Measured values taken from ChEMBL document CHEMBL5518181, “Studies of antibacterial activity (in vitro and in vivo) and mode of action for des-acyl tridecaptins (DATs)” (Eur J Med Chem, 2024).

Legend:
Assay type in all cases: functional
Klebsiella pneumoniae [1] = assay: Antibacterial activity against Klebsiella pneumoniae panel (100 strains) assessed as inhibition of bacterial growth
Escherichia coli [2] = assay: Antibacterial activity against Escherichia coli Swiss 7 harboring mcr-1 gene assessed as inhibition of bacterial growth incubated for 18 hrs
Escherichia coli [3] = assay: Antibacterial activity against colistin resistant Escherichia coli NCTC 13846 harboring mcr-1 gene assessed as inhibition of bacterial growth incubated for 18 hrs
Citrobacter freundii = assay: Antibacterial activity against Citrobacter freundii ATCC 8090 assessed as inhibition of bacterial growth incubated for 18 hrs
Enterobacter cloacae = assay: Antibacterial activity against Enterobacter cloacae ATCC 23355 assessed as inhibition of bacterial growth incubated for 18 hrs
Escherichia coli [4] = assay: Antibacterial activity against Escherichia coli panel (100 strains) assessed as inhibition of bacterial growth
Proteus mirabilis = assay: Antibacterial activity against Proteus mirabilis ATCC 25933 assessed as inhibition of bacterial growth incubated for 18 hrs
Salmonella typhimurium = assay: Antibacterial activity against Salmonella typhimurium ATCC 13311 assessed as inhibition of bacterial growth incubated for 18 hrs; settings: Salmonella enterica subsp. enterica serovar Typhimurium
Staphylococcus aureus = assay: Antibacterial activity against wild type Staphylococcus aureus USA300 assessed as inhibition of bacterial growth incubated for 18 hrs
Escherichia coli [5] = assay: Antibacterial activity against Escherichia coli Swiss 9 harboring mcr-1 gene assessed as inhibition of bacterial growth incubated for 18 hrs
Escherichia coli [6] = assay: Antibacterial activity against Escherichia coli ATCC BAA-2469 expressing NDM-1 assessed as inhibition of bacterial growth incubated for 18 hrs
Escherichia coli [7] = assay: Antibacterial activity against wild-type Escherichia coli ATCC 25922 assessed as inhibition of bacterial growth incubated for 18 hrs
Serratia marcescens = assay: Antibacterial activity against intrinsically colistin resistant Serratia marcescens ATCC 13880 assessed as inhibition of bacterial growth incubated for 18 hrs
Pseudomonas aeruginosa = assay: Antibacterial activity against efflux-deficient Pseudomonas aeruginosa PAO750 assessed as inhibition of bacterial growth incubated for 18 hrs
Klebsiella pneumoniae [8] = assay: Antibacterial activity against Klebsiella pneumoniae ATCC 43816 assessed as inhibition of bacterial growth incubated for 18 hrs
Providencia stuartii = assay: Antibacterial activity against Providencia stuartii ATCC 25826 assessed as inhibition of bacterial growth incubated for 18 hrs
Klebsiella pneumoniae [9] = assay: Antibacterial activity against Klebsiella pneumoniae ATCC BAA-2470 expressing NDM-1 assessed as inhibition of bacterial growth incubated for 18 hrs
Klebsiella pneumoniae [10] = assay: Antibacterial activity against wild-type Klebsiella pneumoniae ATCC 13883 assessed as inhibition of bacterial growth incubated for 18 hrs
Klebsiella aerogenes = assay: Antibacterial activity against Enterobacter aerogenes ATCC 13048 assessed as inhibition of bacterial growth incubated for 18 hrs
Morganella morganii = assay: Antibacterial activity against Morganella morganii ATCC 25830 assessed as inhibition of bacterial growth incubated for 18 hrs

COLISTIN
MIC50 (Klebsiella pneumoniae [1]): 0.5 µg/mL
MIC90 (Klebsiella pneumoniae [1]): > 16 µg/mL
MIC100 (Escherichia coli [2]): 8 µg/mL
MIC100 (Escherichia coli [3]): 8 µg/mL
MIC100 (Citrobacter freundii): 2 µg/mL
MIC100 (Enterobacter cloacae): 2 µg/mL
MIC50 (Escherichia coli [4]): < 0.125 µg/mL
MIC90 (Escherichia coli [4]): 4 µg/mL
MIC100 (Proteus mirabilis): > 32 µg/mL
MIC100 (Salmonella typhimurium): 2 µg/mL
MIC100 (Staphylococcus aureus): > 32 µg/mL
MIC100 (Escherichia coli [5]): 8 µg/mL
MIC100 (Escherichia coli [6]): 2 µg/mL
MIC100 (Escherichia coli [7]): 0.5 µg/mL
MIC100 (Serratia marcescens): > 32 µg/mL
MIC100 (Pseudomonas aeruginosa): 2 µg/mL
MIC100 (Klebsiella pneumoniae [8]): 1 µg/mL
MIC100 (Providencia stuartii): > 32 µg/mL
MIC100 (Klebsiella pneumoniae [9]): 4 µg/mL
MIC100 (Klebsiella pneumoniae [10]): 2 µg/mL
MIC100 (Klebsiella aerogenes): 2 µg/mL
MIC100 (Morganella morganii): > 32 µg/mL
